Data published in patent publication US8455692B2, “Process for resolution of 1-(3-hydroxyphenyl)-2-methylamino ethanol” (Divi's Laboratories, Ltd., priority 2010, dated 2013).

Assay: Solubility of phenylephrine base in water and methanol (Table 2)
Type: physicochemical
Method: One skilled in the art can improvise modifications to the above procedure in several aspects. For example it is possible to use the racemic phenylephrine hydrochloride salt, suspend it in methanol and add the requisite amount of alkali to liberate the free base before adding the R-naproxen to it. Phenylephrine base is not soluble in water but may be rendered soluble at a temperature above 80° and higher dilution but at lower dilution in hot methanol. Suitable combination of solvent, dilution and temperature may be chosen depending on the size of input. (See Table 2 below). R-naproxen may be added as a solution in methanol or as a solid to keep a low solvent ratio enabling better recovery of the salt.

Question: For `CNCC(O)c1cccc(O)c1` (racemic) [Phenylephrine base, 1-(3-hydroxyphenyl)-2-methylamino ethanol], which Solubility (Methanol, 25-30° C., 1 g in 10 mL) is on record?
Answer: Not soluble

Question: What about the Solubility (Methanol, 25-30° C., 1 g in 30 mL) of the same compound?
Answer: Not soluble

Question: What about the Solubility (Methanol, 25-30° C., 1 g in 100 mL) of the same compound?
Answer: Soluble

Question: What about the Solubility (Methanol, 60-80° C., 1 g in 10 mL) of the same compound?
Answer: Not soluble

Question: What about the Solubility (Methanol, 60-80° C., 1 g in 30 mL) of the same compound?
Answer: Soluble

Question: And the Solubility (Methanol, 60-80° C., 1 g in 100 mL)?
Answer: Soluble

Question: What about the Solubility (Water, 25-30° C., 1 g in 10 mL) of the same compound?
Answer: Not soluble

Question: And the Solubility (Water, 25-30° C., 1 g in 30 mL)?
Answer: Not soluble

Question: What about the Solubility (Water, 25-30° C., 1 g in 100 mL) of the same compound?
Answer: Not soluble

Question: What about the Solubility (Water, 60-80° C., 1 g in 10 mL) of the same compound?
Answer: Not soluble

Question: What about the Solubility (Water, 60-80° C., 1 g in 30 mL) of the same compound?
Answer: Not soluble

Question: What about the Solubility (Water, 60-80° C., 1 g in 100 mL) of the same compound?
Answer: Soluble

Question: What about the Solubility (Water, 100° C., 1 g in 10 mL) of the same compound?
Answer: Not soluble

Question: And the Solubility (Water, 100° C., 1 g in 30 mL)?
Answer: Soluble

Question: And the Solubility (Water, 100° C., 1 g in 100 mL)?
Answer: Soluble

Question: And the Solubility in water (water)?
Answer: not soluble
